Data published in patent publication US8008501B2, “Quinoline compounds and their uses” (Rigel Pharmaceuticals, Inc., priority 2003, dated 2011).
Like-named read-outs stand apart in the source and are kept apart here.

Columns and labels:
[1] = system: cultured human mast cells (CHMC); test: CHMC low cell density ionomycin activation: tryptase assay; assay type: cell-based; details: ionomycin stimulated, tryptase release
Protocol: To confirm that many of the quinoline compounds of the invention exert their inhibitory activity by blocking or inhibiting the early IgE receptor signal transduction cascade, many of the compounds were tested in cellular assays for ionomycin-induced degranulation, as described below.
7.8.1 CHMC Low Cell Density Ionomycin Activation: Tryptase Assay
Assays for ionomycin-induced mast cell degranulation were carried out as described for the CHMC Low Density IgE Activation assays (Section 7.7.2, supra), with the exception that during the 1 hour incubation, 6× ionomycin solution [5 mM ionomycin (Signma 1-0634) in MeOH (stock) diluted 1:416.7 in MT buffer ([…])] was prepared and cells were stimulated by adding 25 μl of the 6× ionomycin solution to the appropriate plates.

[2] = system: cultured human mast cells (CHMC); test: CHMC low cell density IgE activation: tryptase assay; assay type: cell-based; details: anti-IgE stimulated, tryptase release, first symbol of cell
Protocol: Inhibition of degranulation was measured at both low and high cell density by quantifying the release of the granule specific factors tryptase, histamine and hexosaminidase. Inhibition of release and/or synthesis of lipid mediators was assessed by measuring the release of leukotriene LTC4 and inhibition of release and/or synthesis of cytokines was monitored by quantifying TNF-α, IL-6 and IL-13. Tryptase and hexosaminidase were quantified using fluorogenic substrates as described in their respective examples. Histamine, TNFα, IL-6, IL-13 and LTC4 were quantified using the following commercial ELISA kits: histamine (Immunotech #2015, Beckman Coulter), TNFα (Biosource #KHC3011), IL-6 (Biosource #KMC0061), IL-13 (Biosource #KHC0132) and LTC4 (Cayman Chemical #520211). The protocols of the various assays are provided below.
7.7.2 CHMC Low Cell Density IgE Activation: Tryptase and LTC4 Assays
To duplicate 96-well U-bottom plates (Costar 3799) add 65 ul of compound dilutions or control samples that have been prepared in MT [137 mM NaCl, 2.7 mM KCl, 1.8 mM CaCl2, 1.0 mM MgCl2, 5.6 mM Glucose, 20 mM Hepes (pH 7.4), 0.1% Bovine Serum Albumin, (Sigma A4503)] containing 2% MeOH and 1% DMSO. Pellet CHMC cells (980 rpm, 10 min) and resuspend in pre-warmed MT. Add 65 ul of cells to each 96-well plate. Depending on the degranulation activity for each particular CHMC donor, load 1000-1500 cells/well. Mix four times followed by a 1 hr incubation at 37° C. During the 1 hr incubation, prepare 6× anti-IgE solution [rabbit anti-human IgE (1 mg/ml, Bethyl Laboratories A80-109A) diluted 1:167 in MT buffer]. Stimulate cells by adding 25 ul of 6× anti-IgE solution to the appropriate plates. Add 25 ul MT to un-stimulated control wells. Mix twice following addition of the anti-IgE. Incubate at 37° C. for 30 minutes. During the 30 minute incubation, dilute the 20 mM tryptase substrate stock solution [(Z-Ala-Lys-Arg-AMC2TFA; Enzyme Systems Products, #AMC-246)] 1:2000 in tryptase assay buffer [0.1 M Hepes (pH 7.5), 10% w/v Glycerol, 10 uM Heparin (Sigma H-4898) 0.01% NaN3]. Spin plates at 1000 rpm for 10 min to pellet cells. Transfer 25 ul of supernatant to a 96-well black bottom plate and add 100 ul of freshly diluted tryptase substrate solution to each well. Incubate plates at room temperature for 30 min. Read the […] of the plates at 355 nm/460 nm on a spectrophotometric plate reader.

[3] = system: mouse model of passive cutaneous anaphylaxis (PCA); details: i.p., 30 minutes pretreatment time
Protocol: This model provides a direct measure of IgE-induced degranulation of tissue mast cells. In this model, IgE primed animals are exposed to an allergen challenge and the change in permeability of dermal vasculature that results from histamine release from mast cells is measured by change in the amount of dye leakage into surrounding tissue. Inhibition of mediator release by compounds that modulate mast cell degranulation is easily measured by extracting the dye from the tissue.
In the PCA assay mice are passively sensitized by intradermal injection with anti-dinitrophenol (DNP) IgE antibodies (Day-1). At predetermined times (5-60 minutes prior to challenge), animals are treated with the test agent (Day 0). The modulatory effect of the agent on cutaneous mast cell degranulation is measured following intravenous injection of DNP conjugated to human serum albumin (HSA-DNP), together with Evans blue dye. The resulting cross-linking of the IgE receptor and subsequent mast cell degranulation-induced increase in vascular permeability is determined by measuring the amount of dye extravasation into the tissue. Dye is extracted from the tissue by formamide, and the absorbance of this extract is read at 620 nm. The inhibitory effect of drug treatment is reported as the percent inhibition compared to vehicle treatment, that is, the percent reduction in A620. […]

[4] = second symbol of cell, read-out: CHMC -IONO
[5] = Homo sapiens, Mast cell, second symbol of cell, read-out: CHMC -IONO

SMILES	IC50 [1, 4]	IC50 [2]	also measured
Cc1onc(-c2ccccc2)c1NC(=O)c1cc(-c2ccccc2)nc2ccccc12 [Compound 61]	> 10 µM	> 10 µM	
Cc1onc(-c2ccccc2)c1C(=O)Oc1cc(C(F)(F)F)nc2ccc(OC(F)(F)F)cc12 [Compound 27]	≤ 10 µM	≤ 10 µM	
Cc1cc(C(=O)Nc2c(C)noc2C)c2cc(F)ccc2n1 [Compound 49]	> 10 µM	≤ 10 µM	
Cc1cc(OC(=O)c2c(-c3ccccc3)noc2C)c2cc(F)ccc2n1 [Compound 11]	≤ 10 µM	≤ 10 µM	
Cc1onc(-c2ccccc2)c1C(=O)Oc1ccnc2c(C(F)(F)F)cccc12 [Compound 15]		≤ 10 µM	
Cc1noc(C)c1NC(=O)c1cc(Cl)nc2ccc(Br)cc12 [Compound 45]	> 10 µM	≤ 10 µM	
Cc1onc(-c2ccccc2)c1C(=O)Oc1ccnc2ccccc12 [Compound 5]	≤ 10 µM	≤ 10 µM	
Cc1onc(-c2ccccc2Cl)c1C(=O)Oc1cc(C(F)(F)F)nc2ccc(OC(F)(F)F)cc12 [Compound 33]		≤ 10 µM	
CN(C)CCOC(c1ccccc1)c1ccccc1 [diphenhydramine]			inhibition of the PCA response ([3]; highest dose 50 mg/kg): up to 86%
Cc1onc(-c2ccccc2)c1NC(=O)c1cc(Cl)nc2ccc(Br)cc12 [Compound 43, 6-bromo-2-chloro-N-(5-methyl-3-phenylisoxazol-4-yl)-4-quinolinecarboxamide]			IC50 [1, 5]: > 10 µM; IC50 ([2]; Homo sapiens, Mast cell): ≤ 10 µM
Cc1onc(-c2c(F)cccc2Cl)c1C(=O)Oc1cc(C(F)(F)F)nc2ccc(OC(F)(F)F)cc12 [Compound 31]	≤ 10 µM	≤ 10 µM	
CNc1cc(NC(=O)c2c(-c3ccccc3)noc2C)c2cc(Br)ccc2n1 [Compound 67]	> 10 µM	≤ 10 µM	
Cc1onc(-c2ccccc2)c1NC(=O)c1cc(Nc2cccc(O)c2)nc2ccc(Br)cc12 [Compound 71, 6-Bromo-2-(3-hydroxyphenyl)amino-N-(5-methyl-3-phenylisoxazol-4-yl)-4-quinolinecarboxamide]			IC50 [1, 5]: ≤ 10 µM; IC50 ([2]; Homo sapiens, Mast cell): ≤ 10 µM
Cc1cc(C(=O)Nc2c(-c3ccccc3)noc2C)c2cc(F)ccc2n1 [Compound 47, 6-Fluoro-2-methyl-N-(5-methyl-3-phenylisoxazol-4-yl)-4-quinolinecarboxamide]			IC50 [1, 5]: > 10 µM; IC50 ([2]; Homo sapiens, Mast cell): ≤ 10 µM
Cc1cc(OC(=O)c2c(-c3ccccc3)noc2C)c2ccccc2n1 [Compound 9, 5-Methyl-3-phenyl-4-isoxazolecarboxylic acid, 2-methyl-4-quinolinyl Ester]			IC50 [1, 5]: ≤ 10 µM; IC50 ([2]; Homo sapiens, Mast cell): ≤ 10 µM
CCOC(=O)c1cc(OC(=O)c2c(-c3ccccc3)noc2C)c2ccccc2n1 [Compound 19]	≤ 10 µM	≤ 10 µM	
Cc1onc(-c2ccccc2Cl)c1C(=O)Oc1ccnc2ccc(OC(F)(F)F)cc12 [Compound 53]	≤ 10 µM	≤ 10 µM	
Cc1noc(C)c1C(=O)Oc1cc(C(F)(F)F)nc2ccc(OC(F)(F)F)cc12 [Compound 29]	≤ 10 µM	≤ 10 µM	

SMILES	IC50 [1, 4]	IC50 [2]	also measured
Cc1noc(C)c1C(=O)Nc1ccnc2cc(C(F)(F)F)ccc12 [Compound 37]	> 10 µM	> 10 µM	
Cc1cc(OC(=O)c2c(-c3ccccc3Cl)noc2C)c2cc(F)ccc2n1 [Compound 25]	≤ 10 µM	≤ 10 µM	
CCOC(=O)c1cnc2cc(C(F)(F)F)ccc2c1OC(=O)c1c(-c2ccccc2)noc1C [Compound 17]	≤ 10 µM	≤ 10 µM	
Cc1onc(-c2ccccc2)c1C(=O)Oc1ccnc2cc(Cl)ccc12 [Compound 7]	≤ 10 µM	≤ 10 µM	
CN1CCC(=C2c3ccccc3C=Cc3ccccc32)CC1 [Cyproheptadine, cyproheptadine]			inhibition of the PCA response ([3]; 8 mg/kg, n=23 experiments): 61% +/−4
Cc1noc(C)c1NC(=O)c1cc(-c2ccccc2)nc2ccccc12 [Compound 1]	> 10 µM	> 10 µM	
Cc1onc(-c2ccccc2)c1C(=O)Oc1ccnc2cc(C(F)(F)F)ccc12 [Compound 13]	≤ 10 µM	≤ 10 µM	
Cc1onc(-c2ccccc2)c1NC(=O)c1ccnc2ccccc12 [Compound 63]	> 10 µM	> 10 µM	
Cc1onc(-c2ccccc2)c1C(=O)Oc1ccnc2ccc(OC(F)(F)F)cc12 [Compound 51]	≤ 10 µM	≤ 10 µM	
Cc1onc(-c2c(F)cccc2Cl)c1C(=O)Oc1ccnc2ccc(OC(F)(F)F)cc12 [Compound 57]	> 10 µM	≤ 10 µM	
Cc1cc(OC(=O)c2c(C)noc2C)c2cc(F)ccc2n1 [Compound 21]		≤ 10 µM	
Cc1onc(-c2ccccc2)c1C(=O)Nc1ccnc2cc(C(F)(F)F)ccc12 [Compound 35, 5-Methyl-3-phenyl-N-(7-trifluoromethyl-4-quinolinyl)-4-isoxazolecarboxamide]			IC50 [1, 5]: ≤ 10 µM; IC50 ([2]; Homo sapiens, Mast cell): ≤ 10 µM
Cc1cc(NC(=O)c2c(-c3ccccc3)noc2C)c2ccccc2n1 [Compound 3]		> 10 µM	
Cc1cc(OC(=O)c2c(-c3c(F)cccc3Cl)noc2C)c2cc(F)ccc2n1 [Compound 23]		≤ 10 µM	
Cc1onc(-c2ccccc2)c1NC(=O)c1cc(Nc2ccc3[nH]ccc3c2)nc2ccc(Br)cc12 [Compound 65]	> 10 µM	≤ 10 µM	
Cc1onc(-c2ccccc2Cl)c1C(=O)Nc1ccnc2cc(C(F)(F)F)ccc12 [Compound 41]	> 10 µM	> 10 µM	
Cc1onc(-c2c(F)cccc2Cl)c1C(=O)Nc1ccnc2cc(C(F)(F)F)ccc12 [Compound 39]		≤ 10 µM	IC50 ([1]; read-out: CHMC -IONO (number printed instead of class symbol)): 30 µM
